For one data set, the target named is T1, Trypsin (Bos taurus, UniProt P00760).
T1 sequence (P00760 24-246): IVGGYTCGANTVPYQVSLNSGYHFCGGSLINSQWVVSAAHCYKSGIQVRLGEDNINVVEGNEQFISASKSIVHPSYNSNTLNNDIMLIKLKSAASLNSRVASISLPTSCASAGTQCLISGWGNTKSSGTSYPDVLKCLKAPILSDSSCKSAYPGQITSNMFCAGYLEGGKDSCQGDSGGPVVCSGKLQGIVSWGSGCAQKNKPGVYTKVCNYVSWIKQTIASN
Briefly: Anti-trypsin activity (hydrolysis of TAME). It counts as biochemical. As to conditions: molar concentration inhibiting 50% of TAME hydrolysis; read-out: id50, Trypsin. As for the experimental part: (§1) The anti-trypsin, anti-plasmin, anti-kallikrein and anti-thrombin activities were determined according to the method of Muramatsu et al. [M. Muramatsu, T. Onishi, S. Makino, Y. Hayashi and S. Fujii, J. of Biochem., 58, 214 (1965)]. The data summarized in Table 1 are expressed in terms of molar concentration (id50) of the test compound which inhibits 50% of the activity of each enzyme to hydrolyze TAME (tosylarginine methyl ester). The compound No. corresponds to the compound number shown in Examples.

The next data set has as its target Plasmin (Homo sapiens, UniProt P00747). Briefly: Anti-plasmin activity (hydrolysis of TAME). It counts as biochemical. The following applies: molar concentration inhibiting 50% of TAME hydrolysis; read-out: id50, Plasmin. As for the experimental part: as §1
The next data set deals with Thrombin (Bos taurus, UniProt P00735). Nature of the data set: Anti-thrombin activity (hydrolysis of TAME). It counts as biochemical. As for the experimental part: as §1
The target of another data set is T2, C1r (Homo sapiens, UniProt P00736).
T2 sequence (P00736 464-705 limits assumed): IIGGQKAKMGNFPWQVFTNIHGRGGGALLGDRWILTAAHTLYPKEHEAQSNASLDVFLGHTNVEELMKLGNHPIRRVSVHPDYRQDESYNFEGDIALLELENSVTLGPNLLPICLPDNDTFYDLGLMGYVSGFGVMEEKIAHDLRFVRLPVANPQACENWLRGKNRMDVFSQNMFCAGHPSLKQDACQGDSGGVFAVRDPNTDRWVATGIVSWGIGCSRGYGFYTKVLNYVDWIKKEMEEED
T2 sequence (P00736 18-463 partner limits assumed): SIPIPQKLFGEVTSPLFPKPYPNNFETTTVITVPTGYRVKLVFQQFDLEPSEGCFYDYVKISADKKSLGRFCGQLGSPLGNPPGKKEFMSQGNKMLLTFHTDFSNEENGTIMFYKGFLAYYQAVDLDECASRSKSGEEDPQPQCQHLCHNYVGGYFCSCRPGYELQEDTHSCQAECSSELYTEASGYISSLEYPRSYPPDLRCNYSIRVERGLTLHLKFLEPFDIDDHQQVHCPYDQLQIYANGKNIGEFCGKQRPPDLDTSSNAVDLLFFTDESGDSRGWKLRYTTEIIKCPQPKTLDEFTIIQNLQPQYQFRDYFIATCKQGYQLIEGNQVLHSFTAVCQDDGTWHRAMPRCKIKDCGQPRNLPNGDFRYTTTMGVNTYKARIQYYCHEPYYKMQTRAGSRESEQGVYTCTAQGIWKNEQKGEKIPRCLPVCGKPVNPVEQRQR
Nature of the data set: Anti-C1 esterase activity, C1r (hydrolysis of AAME). Type of data set: biochemical. As to conditions: molar concentration inhibiting 50% of AAME hydrolysis; read-out: Anti-C1 activity, C1r id50. As for the experimental part:
The anti-C1 esterase (C1r, C1s) activity was determined according to the method of Okamura et al. [K. Okamura, M. Muramatsu and B. Fujii, Biochem. Biophys. […] The figures in Table 2 have the following meanings:
C1r: Molar concentration of the test compound which inhibits 50% of the ability of C1r to hydrolyse AAME (acetylarginin methyl ester) (id50).

The target of another data set is T3, C1s (Homo sapiens, UniProt P09871).
T3 sequence (P09871 438-688 limits assumed): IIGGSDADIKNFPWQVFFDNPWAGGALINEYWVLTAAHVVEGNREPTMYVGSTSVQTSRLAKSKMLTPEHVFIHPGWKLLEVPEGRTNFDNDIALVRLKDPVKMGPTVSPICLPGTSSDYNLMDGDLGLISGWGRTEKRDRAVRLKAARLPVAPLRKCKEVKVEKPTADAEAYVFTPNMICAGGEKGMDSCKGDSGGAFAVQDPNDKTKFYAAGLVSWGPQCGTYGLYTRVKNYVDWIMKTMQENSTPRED
T3 sequence (P09871 16-437 partner limits assumed): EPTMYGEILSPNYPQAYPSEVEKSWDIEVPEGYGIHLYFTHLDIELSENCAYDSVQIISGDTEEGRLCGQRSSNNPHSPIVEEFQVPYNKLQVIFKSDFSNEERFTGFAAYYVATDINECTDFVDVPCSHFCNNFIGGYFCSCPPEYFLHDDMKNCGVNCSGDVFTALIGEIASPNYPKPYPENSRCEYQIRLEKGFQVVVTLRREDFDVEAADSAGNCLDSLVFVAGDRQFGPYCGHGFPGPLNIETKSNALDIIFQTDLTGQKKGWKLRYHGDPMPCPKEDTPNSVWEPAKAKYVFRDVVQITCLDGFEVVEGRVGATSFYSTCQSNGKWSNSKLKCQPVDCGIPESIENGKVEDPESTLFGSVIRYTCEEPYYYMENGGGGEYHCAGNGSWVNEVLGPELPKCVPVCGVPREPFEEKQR
Briefly: Anti-C1 esterase activity, C1s (hydrolysis of ATEE). It counts as biochemical. On the procedure:
The anti-C1 esterase (C1r, C1s) activity was determined according to the method of Okamura et al. [K. Okamura, M. Muramatsu and B. Fujii, Biochem. Biophys. Acta, 295, 252-257 (1973)]. The inhibition of complement mediated hemolysis was determined according to the method of Baker et al. [B. R. Baker and E. H. Erickson, J. Med. Chem., 12, 408-414 (1969)]. The figures in Table 2 have the following meanings:
C1s: Molar concentration of the test compound which inhibits 50% of the ability of C1s to hydrolyse ATEE (acetyltyrosin ethyl ester).

Data set [1] concerns complement. Briefly: Inhibition of complement mediated hemolysis. Type of data set: cell-based. The following applies: read-out: Inhibition of complement mediated hemolysis (%).
Experimental: The complement mediated hemolysis is widely used as a means to determine the titration of complement. The principle of this method is based on the fact that hemolysis is caused by the activation of complement, when the latter is added to a complex (immune complex) of erythrocytes and the autibody thereof. The degree of hemolysis varies in proportion to the amount of complement added. Therefore, when a known amount of complement admixed with a C1 esterase inhibitor is used, the hemolysis must be suppressed in proportion to the inhibitory activity.
The anti-C1 esterase (C1r, C1s) activity was determined according to the method of Okamura et al. [K. Okamura, M. Muramatsu and B. Fujii, Biochem. Biophys. […] The inhibition of complement mediated hemolysis was determined according to the method of Baker et al. [B. R. Baker and E. H. Erickson, J. Med. Chem., 12, 408-414 (1969)].
Another data set concerns Forssman shock. Briefly: Forssman shock (survival time after hemolysin). It counts as in vivo, guinea pig (male Hartlay). As to conditions: for time elapsed until death, average: control average 361 sec. The text has this: Quite different from other animals, guinea pig has on the surface of its organs a specific antigen called Forssman antigen which specifically reacts with the antibody of sheep erythrocyte. Forssman shock is based on the above principle and is a shock caused by the administration of antibody of sheep erythrocyte to a guinea pig. The Forssman shock was investigated in detail by many researches and it was definitely shown that this shock is a model case where the complement plays the principal part and that the shock is associated with a classical pathway in which the complement system is activated progressively starting from C1. Since the participation of complement in autoimmune diseases has been established, the Forssman shock can be said to be a useful means for testing a drug for autoimmune diseases. A drug effective for the treatment of Forssman shock is useful as a drug of autoimmune diseases. [Anti-trypsin, anti-plasmin, anti-kallikrein and anti-thrombin activities]
The experiment was performed according to the method of I. G. Offerness et al. [Biochem. Pharmacol., 27 (14), 1873-1878 (1978)]. Male Hartlay guinea pig of about 300 g in body weight was used. Each guinea pig of the control group was administered intravenously with 0.5 ml (minimum dose to cause the shock) of hemolysin (commercial hemolysin, 5,000 U as assayed by the method of Ogata) and the time elapsed until death was observed. For the test group, each guinea pig was administered intravenously with the test compound 5 minutes before the administration of hemolysin and the time (second) elapsed until death was observed.

Data set [2] in a line: Toxicity, median lethal dose (LD50). The following applies: in vivo.
Data set [3] concerns complement. The following applies: Y. Takada et al., Immunology 34, 509-515 (1978); cited from earlier work.

Values joined by “and” are separate entries in the source; they are usually repeats but may differ in a detail not shown here. Equal values may be shown once. Read-outs that look alike come from different tables or passages of the source.

Chain of Plasmin (P00747 581-810 limits assumed): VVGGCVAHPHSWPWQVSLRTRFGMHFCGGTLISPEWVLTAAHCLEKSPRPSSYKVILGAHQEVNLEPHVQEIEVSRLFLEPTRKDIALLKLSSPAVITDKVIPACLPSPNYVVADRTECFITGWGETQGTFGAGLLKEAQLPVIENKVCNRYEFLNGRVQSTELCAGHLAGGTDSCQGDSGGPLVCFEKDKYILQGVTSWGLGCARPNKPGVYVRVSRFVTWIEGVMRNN
Chain of Plasmin (P00747 97-580 partner limits assumed): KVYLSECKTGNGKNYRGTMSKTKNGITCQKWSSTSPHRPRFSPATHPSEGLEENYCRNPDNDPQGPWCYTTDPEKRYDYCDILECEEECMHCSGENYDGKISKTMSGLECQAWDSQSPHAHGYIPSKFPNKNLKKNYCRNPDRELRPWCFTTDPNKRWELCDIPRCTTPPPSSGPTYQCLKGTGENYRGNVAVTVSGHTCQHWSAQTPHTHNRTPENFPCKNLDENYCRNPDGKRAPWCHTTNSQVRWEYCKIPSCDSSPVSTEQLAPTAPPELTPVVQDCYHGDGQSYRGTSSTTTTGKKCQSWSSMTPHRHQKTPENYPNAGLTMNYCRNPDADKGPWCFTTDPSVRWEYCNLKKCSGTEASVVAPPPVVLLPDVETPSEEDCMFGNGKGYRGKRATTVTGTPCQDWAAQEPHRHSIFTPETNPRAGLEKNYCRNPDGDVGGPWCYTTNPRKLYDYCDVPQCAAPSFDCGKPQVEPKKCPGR

As for `N=C(N)C=Cc1ccc(OC(=O)c2ccccc2)cc1` [Compound 12, 4-(β-amidinoethenyl)-phenyl benzoate], the IC50 on Trypsin is 600 nM; at Plasmin it was 2000 nM; on Thrombin, 3000 nM; on C1r, 800 nM; against C1s it was 300 nM. Moreover, the inhibition at 100 µM with complement [1] (1 × 10^-4 M) amounted to 100%. Further, the inhibition at 10 µM in the data set with complement [1] (1 × 10^-5 M) came out at 100%. Further, in the data set on complement [1] (1 × 10^-6 M), the inhibition at 1 µM is 54%. Also, the inhibition at 0.1 µM in the data set on complement [1] (1 × 10^-7 M) was 11%.

Take `N=C(N)C=Cc1ccc(OC(=O)c2ccc(NC(=N)N)cc2)cc1` [Compound 35, 4-(β-amidinoethenyl)phenyl 4-guanidinobenzoate]: the IC50 amounted to 20 nM at Trypsin; 900 nM at Plasmin; 1000 nM at Thrombin; 4000 nM on C1r; 300 nM at C1s (molar concentration inhibiting 50% of ATEE hydrolysis, read-out: Anti-C1 activity, C1s id50). Further, in the data set with complement [1], the inhibition at 0.1 µM is 46%. Further, the inhibition at 1 µM in the data set on complement [1] was 97%. For the same molecule, the inhibition at 10 µM in the data set on complement [1] is 100%. Besides, the inhibition at 100 µM in the data set with complement [1] is 100%. The “time elapsed until death” value in the data set on Forssman shock (1 mg/kg i.v. 5 minutes before hemolysin, individual animals 1-4) was 490 s and 375 s and 255 s and 285 s; in the data set on Forssman shock (3 mg/kg i.v. 5 minutes before hemolysin, individual animals), 365 s and 4000 s and 690 s. The “time elapsed until death, average” value came to 351 s with Forssman shock (1 mg/kg i.v.) and 528 s with Forssman shock (3 mg/kg i.v.). Besides, the “survival of individual animal” value in the data set with Forssman shock (3 mg/kg i.v. 5 minutes before hemolysin, animal 2) is reported as “Survival”. The LD50 in [2] (ip) was found to be 133 mg/kg; in data set [2] (po), 1200 mg/kg.

Consider `CC(=O)N[C@@H](CC(C)C)C(=O)N[C@@H](CC(C)C)C(=O)N[C@H](C=O)CCCNC(=N)N` [Leupeptin, reference compound], for which the IC50 at C1r was 200000 nM. Further, the IC50 against C1s is 20000 nM. Moreover, in the data set with complement [1], the inhibition at 0.1 µM is 0%, the inhibition at 1 µM stood at 0%, the inhibition at 10 µM was found to be 52% and the inhibition at 100 µM was found to be 97%. The “anti-complement activity (in words)” value in the data set with complement [3] is “anti-complement activity”.

As usually defined, the inhibition is the relative decrease from the control value, in per cent. A word on the LD50: it is the dose at which mortality reaches 50%. Read a low LD50 as a more toxic substance.

Source of the values: patent publication US4490388A, “Amidine compound and anticomplement agent comprising same” (Torii & Co., Ltd., priority 1981, dated 1984).
